Experimental data as given in ChEMBL document CHEMBL4619709, “Synthesis and in-vitro anti-cancer evaluations of multi-methoxylated asymmetrical diarylpentanoids as intrinsic apoptosis inducer against colorectal cancer” (Bioorg Med Chem Lett, 2020).
pIC50: −log10 of the molar value. Calls of active or inactive are those of the source. The calls are words filed in the database; no cut-off is given here.

Columns and labels:
RKO [1] = assay: Antiproliferative activity against human RKO cells assessed as reduction in cell viability after 72 hrs by MTT assay; assay type: functional, cell-based
HT-29 [2] = assay: Antiproliferative activity against human HT-29 cells assessed as reduction in cell viability after 72 hrs by MTT assay; assay type: functional, cell-based; settings: HT-29, 72 h
RKO [3] = assay: Antiproliferative activity against human RKO cells at 10 uM after 72 hrs by MTT assay; assay type: functional, cell-based
[4] = Therapeutic index, ratio of IC50 for human NHDF cells to IC50 for human NCI-H508 cells after 72 hrs; assay type: toxicity; settings: NHDF cells versus NCI-H508 cells, read-out: Ratio IC50
NCI-H508 [5] = assay: Antiproliferative activity against human NCI-H508 cells assessed as reduction in cell viability after 72 hrs by MTT assay; assay type: functional, cell-based; settings: NCI-H508, 72 h
NCI-H508 [6] = assay: Antiproliferative activity against human NCI-H508 cells at 10 uM after 72 hrs by MTT assay; assay type: functional, cell-based
[7] = Therapeutic index, ratio of IC50 for human NHDF cells to IC50 for human T84 cells after 72 hrs; assay type: toxicity; settings: NHDF cells versus T84 cells, read-out: Ratio IC50
LoVo [8] = assay: Antiproliferative activity against human LoVo cells assessed as reduction in cell viability after 72 hrs by MTT assay; assay type: functional, cell-based
LoVo [9] = assay: Antiproliferative activity against human LoVo cells at 10 uM after 72 hrs by MTT assay; assay type: functional, cell-based
[10] = Therapeutic index, ratio of IC50 for human NHDF cells to IC50 for human SW620 cells after 72 hrs; assay type: toxicity; settings: NHDF cells versus SW620 cells, read-out: Ratio IC50
SW-620 [11] = assay: Antiproliferative activity against human SW620 cells assessed as reduction in cell viability after 72 hrs by MTT assay; assay type: functional, cell-based; settings: SW-620, 72 h
NHDF = assay: Cytotoxicity against human NHDF cells assessed as reduction in cell viability; assay type: cell-based
[12] = Therapeutic index, ratio of IC50 for human NHDF cells to IC50 for human RKO cells after 72 hrs; assay type: toxicity; settings: NHDF cells versus RKO cells, read-out: Ratio IC50
HT-29 [13] = assay: Antiproliferative activity against human HT-29 cells at 10 uM after 72 hrs by MTT assay; assay type: functional, cell-based
T84 [14] = assay: Antiproliferative activity against human T84 cells at 10 uM after 72 hrs by MTT assay; assay type: functional, cell-based
[15] = Therapeutic index, ratio of IC50 for human NHDF cells to IC50 for human HT-29 cells after 72 hrs; assay type: toxicity; settings: NHDF cells versus HT-29 cells, read-out: Ratio IC50
T84 [16] = assay: Antiproliferative activity against human T84 cells assessed as reduction in cell viability after 72 hrs by MTT assay; assay type: functional, cell-based; settings: T84, 72 h
SW-620 [17] = assay: Antiproliferative activity against human SW620 cells at 10 uM after 72 hrs by MTT assay; assay type: functional, cell-based
[18] = Therapeutic index, ratio of IC50 for human NHDF cells to IC50 for human LoVo cells after 72 hrs; assay type: toxicity; settings: NHDF cells versus LoVo cells, read-out: Ratio IC50

| SMILES | pIC50 (RKO [1]) | pIC50 (HT-29 [2]) | Activity (RKO [3]) | selectivity ratio at 72 h [4] | pIC50 (NCI-H508 [5]) | Activity (NCI-H508 [6]) | selectivity ratio at 72 h [7] | pIC50 (LoVo [8]) | Activity (LoVo [9]) | selectivity ratio at 72 h [10] | pIC50 (SW-620 [11]) | pIC50 (NHDF) | selectivity ratio at 72 h [12] | Activity (HT-29 [13]) | Activity (T84 [14]) | selectivity ratio at 72 h [15] | pIC50 (T84 [16]) | Activity (SW-620 [17]) | selectivity ratio at 72 h [18] |
| --- | --- | --- | --- | --- | --- | --- | --- | --- | --- | --- | --- | --- | --- | --- | --- | --- | --- | --- | --- |
| COc1cc(/C=C2\CCC/C(=C\c3cccc(O)c3)C2=O)cc(OC)c1OC | 5.19 | 5.12 | Active | 3.3 to 5.3 | 5.25 | Active | 3.3 to 5.3 | 5.32 | Active | 3.3 to 5.3 | < 5.00 | 4.60 | 3.3 to 5.3 | Active | Active | 3.3 to 5.3 | 5.19 | Active | 3.3 to 5.3 |
| COc1ccccc1/C=C1\CCC/C(=C\c2cc(OC)c(OC)c(OC)c2)C1=O | 5.92 | 5.92 | Active | 3.6 to 7.2 | 5.66 | Active | 3.6 to 7.2 | 5.96 | Active | 3.6 to 7.2 | 5.70 | 5.10 | 3.6 to 7.2 | Active | Active | 3.6 to 7.2 | 5.68 | Active | 3.6 to 7.2 |
| COc1cc(/C=C2\CCC/C(=C\c3ccc(O)c(O)c3)C2=O)cc(OC)c1OC | 5.51 | 5.07 | Active | 1.1 to 3.3 | 5.15 | Active | 1.1 to 3.3 | 5.57 | Active | 1.1 to 3.3 | 5.49 | 5.05 | 1.1 to 3.3 | Active | Active | 1.1 to 3.3 | 5.44 | Active | 1.1 to 3.3 |
| COc1cc(/C=C2\CCC/C(=C\c3ccc(F)c(F)c3)C2=O)cc(OC)c1OC | 5.66 | 5.77 | Active | 2.7 to 6.5 | 5.40 | Active | 2.7 to 6.5 | 5.64 | Active | 2.7 to 6.5 | 5.39 | 4.95 | 2.7 to 6.5 | Active | Active | 2.7 to 6.5 | 5.46 | Active | 2.7 to 6.5 |
| COc1cc(/C=C2\CCC/C(=C\c3ccccc3Br)C2=O)cc(OC)c1OC | 5.60 | 5.55 | Active | 3 to 5 | 5.57 | Active | 3 to 5 | 5.55 | Active | 3 to 5 | 5.48 | 4.91 | 3 to 5 | Active | Active | 3 to 5 | 5.38 | Active | 3 to 5 |
| COc1cc(/C=C2\CCC/C(=C\c3ccccc3F)C2=O)cc(OC)c1OC | 5.82 | 5.80 | Active | 1.8 to 2.7 | 5.70 | Active | 1.8 to 2.7 | 5.72 | Active | 1.8 to 2.7 | 5.68 | 5.40 | 1.8 to 2.7 | Active | Active | 1.8 to 2.7 | 5.66 | Active | 1.8 to 2.7 |
| O=c1[nH]cc(F)c(=O)[nH]1 [FLUOROURACIL] | 5.54 | < 5.00 | – | – | 5.06 | – | – | 5.57 | – | – | < 5.00 | < 4.30 | – | – | – | – | < 5.00 | – | – |
| COc1cccc(/C=C2\CCC/C(=C\c3cc(OC)c(OC)c(OC)c3)C2=O)c1OC | 5.44 | 5.49 | Active | 3.9 to 7.2 | 5.32 | Active | 3.9 to 7.2 | 5.59 | Active | 3.9 to 7.2 | 5.35 | 4.73 | 3.9 to 7.2 | Active | Active | 3.9 to 7.2 | 5.41 | Active | 3.9 to 7.2 |
| COc1ccc(/C=C2\CCC/C(=C\c3cc(OC)c(OC)c(OC)c3)C2=O)cc1OC | 5.89 | 5.82 | Active | 3.1 to 4.5 | 5.77 | Active | 3.1 to 4.5 | 5.77 | Active | 3.1 to 4.5 | 5.80 | – | 3.1 to 4.5 | Active | Active | 3.1 to 4.5 | 5.72 | Active | 3.1 to 4.5 |
